Results as given in patent US20100130599A1 (priority 2008, published 2010).
Like-named read-outs stand apart in the source and are kept apart here.

Experiments:
[1] = Text: A total of 226 African American patients having demographic and clinical parameters as depicted in Table 1 were studied.
Patients were enrolled from the pharmacist-managed anticoagulation clinics at the University of Illinois Medical Center at Chicago and at the University of Florida in Gainesville. […] Aquilante, C. […] Pharmacogenomics 8, 1535-44 (2007). Patients with a history of liver dysfunction or serum transaminase levels greater than 3 times the upper limit of normal were excluded.
After obtaining written informed consent and authorization for medical record review, a buccal cell sample was collected for genetic analysis, as previously described. Andrisin, T. E., Humma, L. M. & Johnson, J. A. Collection of genomic DNA by the noninvasive mouthwash method for use in pharmacogenetic studies. Pharmacotherapy 22, 954-60 (2002). Demographic, clinical, and social history were assessed through patient interview and review of the medical record. This study was approved by the Institutional Review Board at each institution.
Genomic DNA was isolated from buccal cells using a commercially available kit (PureGene,® Qiagen, Valencia, Calif.) according to kit manufacturer instructions. The CYP2C9 R144C (*2), […] (*3) and D360E (*5) alleles and VKORC1 −1639G>A genotype were determined as previously described. Aquilante, C. […] Clin Pharmacol Ther 79, 291-302 (2006); Hruska, M. W., Frye, R. F. & Langaee, T. Y. Pyrosequencing method for genotyping cytochrome P450 CYP2C8 and CYP2C9 enzymes. Clin Chem 50, 2392-5 (2004). The VKORC1 −4451A>C, 497G>T, and 3730A>G genotypes, and APOE 112C>T and 158C>T genotypes were determined by PCR and pyrosequencing. PCR and sequencing primers used were per Table 6.
Prior to determination of additional genotypes, genomic DNA was amplified by the whole genome amplification (WGA) technique, using the REPLI-g midi kit (Qiagen). Dean, F. B. et al. Comprehensive human genome amplification using multiple displacement amplification. Proc Natl Acad Sci USA 99, 5261-6 (2002) The fidelity of amplification was verified by comparing genotypes for CYP2C9*2, *3, *5 and VKORC1 −1639G>A determined before and after WGA. […] Reed, M. R. & Coty, W. A. in Microarrays: Preparation, Detection Methods, Data Analysis, and Applications (eds. Dill, K., Liu, R. & Grodzinski, P.) 247-60 (Springer-Verlag/Kluwer, 2009). The CYP2C9*8 genotype was determined by bi-directional DNA sequencing at Agencourt Biosciences after uniplex PCR amplification performed by Osmetech Molecular Diagnostics.
Data are expressed as numbers (percentages), mean±SD, or median (inter-quartile range). Height and weight were used to calculate body surface area (BSA). […] Hardy Weinberg Equilibrium (HWE) assumption was tested by χ^2 analysis. […] Dickmann, L. J. et al. Identification and functional characterization of a new CYP2C9 variant (CYP2C9*5) expressed among African Americans. Mol Pharmacol 60, 382-7 (2001); Allabi, A. C., Gala, J. L. & Horsmans, Y. CYP2C9, CYP2C19, ABCB1 (MDR1) genetic polymorphisms and phenytoin metabolism in a Black Beninese population. Pharmacogenet Genomics 15, 779-86 (2005); Blaisdell, J. et al. Discovery of new potentially defective alleles of human CYP2C9. Pharmacogenetics 14, 527-37 (2004) Carriers of a variant CYP2C9*8 allele were initially analyzed separately because of uncertainty regarding the functional effects of this allele.

[2] = biological target: T1, CYP2C9*8 (Homo sapiens, UniProt P11712, R150H); settings: cited from earlier work
[3] = biological target: T1, CYP2C9*8; parameters: host or cells: human subjects carrying the CYP2C9*8 allele (in vivo phenotyping); settings: CYP2C9*8 allele, cited from earlier work

SMILES: CC(=O)CC(c1ccccc1)c1c(O)c2ccccc2oc1=O (stereo not drawn) [warfarin]
- Median (IQR) dose ([1]; APOE ε2/ε2, n=4): 35.5 (34.3-38.9) mg/week
- Median (IQR) dose ([1]; APOE ε2/ε3, n=36): 40.0 (30.0-49.7) mg/week
- Median (IQR) dose ([1]; APOE ε2/ε4, n=6): 61.3 (38.4-70.0) mg/week
- Median (IQR) dose ([1]; APOE ε3/ε3, n=102): 40.0 (32.1-52.5) mg/week
- Median (IQR) dose ([1]; APOE ε3/ε4, n=60): 43.8 (32.4-56.3) mg/week
- Median (IQR) dose ([1]; APOE ε4/ε4, n=9): 45.0 (40.0-52.5) mg/week
- warfarin dose, median (IQR) ([1]; APOE ε4 carriers): 45.0 (33.1-56.3) mg/week
- warfarin dose, median (IQR) ([1]; APOE ε4 homozygotes): 45.0 (40.0-52.5) mg/week
- Median (IQR) dose ([1]; CYP2C9 *1/*1, n=171): 42.5 (35.0-56.3) mg/week
- Median (IQR) dose ([1]; CYP2C9 *1/*8 or *8/*8, n=24): 34.4 (29.5-47.3) mg/week
- Median (IQR) dose ([1]; CYP2C9 *2, *3, *5, *6, or *11 allele, n=28): 33.1 (28.0-40.0) mg/week
- Median (IQR) dose ([1]; CYP4F2 V433M M/M, n=3): 37.5 (28.8-56.3) mg/week
- Median (IQR) dose ([1]; CYP4F2 V433M V/M, n=26): 40.0 (35.3-51.9) mg/week
- Median (IQR) dose ([1]; CYP4F2 V433M V/V, n=194): 41.6 (32.5-55.0) mg/week
- Median (IQR) dose ([1]; VKORC1 497T > G GG, n=1): 36.0 — mg/week
- Median (IQR) dose ([1]; VKORC1 497T > G TG, n=16): 35.0 (27.5-36.3) mg/week
- Median (IQR) dose ([1]; VKORC1 497T > G TT, n=208): 42.0 (32.5-56.1) mg/week
- Median (IQR) dose ([1]; VKORC1 −1639G > A GA, n=33): 35.0 (27.5-42.5) mg/week
- Median (IQR) dose ([1]; VKORC1 −4451C > A AA, n=3): 28.0 (26.5-30.3) mg/week
- Median (IQR) dose ([1]; VKORC1 −4451C > A CA, n=22): 42.5 (31.0-55.6) mg/week
- Median (IQR) dose ([1]; VKORC1 −4451C > A CC, n=200): 40.0 (32.5-55.0) mg/week
- Median (IQR) dose ([1]; VKORC1.3730A > G AA, n=45): 42.0 (32.5-55.0) mg/week
- Median (IQR) dose ([1]; VKORC1.3730A > G GA, n=121): 42.0 (34.0-56.3) mg/week
- Median (IQR) dose ([1]; VKORC1.3730A > G GG, n=60): 37.5 (30.0-47.5) mg/week
- Average INR ([1]; all patients (n = 226) on stable warfarin dose, mean ± SD): 2.5 ± 0.3
- Therapeutic warfarin dose ([1]; all patients (n = 226), median (IQR)): 40.0 (32.5-55.0) mg/week
- warfarin dose, median (IQR) ([1]; individuals with a CYP2C9*5, *6, *8, or *11 allele, n=40): 35.0 mg/wk
- warfarin dose, median (IQR) ([1]; non-c4 homozygotes): 40.0 (32.0-55.0) mg/week
- warfarin dose, median (IQR) ([1]; non-ε4 carriers): 40.0 (32.0-52.5) mg/week
- median daily warfarin dose ([1]; study population, median (range)): 5.7 mg

SMILES: CCCCc1nc(Cl)c(CO)n1Cc1ccc(-c2ccccc2-c2nnn[nH]2)cc1 [Losartran]
- effect of *8 on in vivo metabolism [2]: little effect

SMILES: O=C1NC(=O)C(c2ccccc2)(c2ccccc2)N1 [phenytoin]
- urinary excretion of phenytoin metabolite ([3]; clinical study): reduced urinary excretion
- effect of *8 on in vivo metabolism ([3]; in vivo): decreases in vivo metabolism
